Experimental data reported in patent publication US11339171B2, “MDM2 inhibitors” (Gan & Lee Pharmaceuticals, priority 2017, dated 2022).
pIC50: −log10 of the molar value. Several values for one entry are separate records, joined by “and”; a condition that tells them apart may be missing. Equal values may be shown once. Read-outs that look alike come from different tables or passages of the source.

Experiments:
MDM2 = target: T1, MDM2 (Homo sapiens, UniProt Q00987); assay: Inhibition test of MDM2-P53 (GST-MDM2, Biotin-P53, Anti-GST-Tb, SA-XL665); type: binding
T1 construct: made in house
T1 sequence (Q00987 whole entry): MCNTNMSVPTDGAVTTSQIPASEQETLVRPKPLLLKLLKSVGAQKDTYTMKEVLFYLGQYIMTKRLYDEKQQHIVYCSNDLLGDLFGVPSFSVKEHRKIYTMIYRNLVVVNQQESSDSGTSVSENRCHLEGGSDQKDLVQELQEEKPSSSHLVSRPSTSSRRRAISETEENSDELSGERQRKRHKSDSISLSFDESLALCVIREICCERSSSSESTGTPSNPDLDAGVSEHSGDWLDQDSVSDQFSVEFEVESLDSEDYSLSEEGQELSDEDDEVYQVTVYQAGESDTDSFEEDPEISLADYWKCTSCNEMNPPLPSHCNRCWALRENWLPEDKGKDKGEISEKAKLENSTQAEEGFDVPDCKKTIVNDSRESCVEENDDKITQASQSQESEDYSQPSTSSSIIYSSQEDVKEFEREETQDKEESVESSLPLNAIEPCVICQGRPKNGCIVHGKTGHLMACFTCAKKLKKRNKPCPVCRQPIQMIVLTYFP
How it was run: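 HTRF-type assay using 4 nM GST-MDM2 (final), Biotin-P53, SA-XL665 and anti-GST-Tb in PBS with 0.1% BSA, 5 mM DTT and 1 mM AEBSF. Compounds in 5-fold serial dilutions over twelve points; incubation 90 min at 25° C with shaking before plate-reader read-out.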

[1] = Pharmacokinetics in ICR mice after intravenous and intragastric administration; type: in vivo; settings: for MRT last: read-out: MRT(0-t); for MRT inf: read-out: MRT(0-∞); for Tmax: read-out: Tmax; for Vd: read-out: Vz
How it was run: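 Plasma concentrations by LC-MS/MS (range 1 to 2000 ng/ml) following single intravenous (2 mg/kg) or oral gavage (5 mg/kg) dosing of fasted male ICR mice, three per group. Vehicle 5% DMSO + 40% PEG400 + 55% (10% HP-β-CD in saline); standard PK parameters including bioavailability calculated.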

[2] = tested on: human osteosarcoma cell line SJSA-1; assay: Inhibition of proliferation of human osteosarcoma cell line SJSA-1 (DAPI staining, In Cell Analyzer); settings: Homo sapiens, SJSA-1, 72 h, read-out: IC50 (nM), inhibitory activity on proliferation of human osteosarcoma cell line SJSA-1, SJSA-1, incubated 72 h
[3] = IV 2 mg/kg, ICR mice, individual animal, 2 mg/kg
[4] = PO 5 mg/kg, ICR mice, individual animal, 5 mg/kg
[5] = male, ICR, mouse, plasma, iv, 2 mg/kg, IV 2 mg/kg, ICR mice, Mean
[6] = male, ICR, mouse, plasma, iv, 2 mg/kg, IV 2 mg/kg, ICR mice, individual animal
[7] = male, ICR, mouse, plasma, po, 5 mg/kg, PO 5 mg/kg, ICR mice, Mean
[8] = male, ICR, mouse, plasma, po, 5 mg/kg, PO 5 mg/kg, ICR mice, individual animal

With `COc1ncc(-c2nc3c(n2C(C)C)[C@@]2(C(=O)Nc4cc(Cl)ccc42)N(c2cccc(Cl)c2)C3=O)c(OC)n1` [Example S-1, (S)-6-chloro-5′-(3-chlorophenyl)-2′-(2,4-dimethoxypyrimidin-5-yl)-3′-isopropyl-3′H-spiro[dihydroindole-3,4′-pyrrolo[3,4-d]imidazole]-2,6′(5′H)-dione] the pIC50 (MDM2) was 8.66, the “AUC(0-t)” value [1, 3] was 843.53 ng·h/mL and 532.69 ng·h/mL and the “AUC(0-∞)” value [1, 3] was 855.63 ng·h/mL and 548.82 ng·h/mL. The CL [1, 3] was 38.9578 mL/min/kg and 60.7363 mL/min/kg, the Cmax [1, 3] was 336.17 ng/mL and 307.80 ng/mL and the “MRT(0-t)” value [1, 3] was 1.34 h. The “MRT(0-∞)” value [1, 3] was 1.43 h and 1.52 h, the Vz [1, 3] was 3.30882 L/kg and 6.38069 L/kg and the t1/2 [1, 3] was 0.98 h and 1.21 h. The “F*” value ([1]; PO 5 mg/kg vs IV 2 mg/kg, ICR mice) was 76.30%, the “AUC(0-t)” value [1, 4] was 1822.90 ng·h/mL and 1944.41 ng·h/mL and 241.17 ng·h/mL and the “AUC(0-∞)” value [1, 4] was 1834.25 ng·h/mL and 2088.41 ng·h/mL and 330.15 ng·h/mL. For the same compound, the Cmax [1, 4] was 629.23 ng/mL and 471.21 ng/mL and 92.81 ng/mL, the “MRT(0-t)” value [1, 4] was 2.60 h and 1.79 h and the “MRT(0-∞)” value [1, 4] was 3.17 h and 3.13 h. For the same compound, the t1/2 [1, 4] was 1.98 h and 1.92 h, the AUC(0-inf) [1, 5] was 714 ng·h/mL and the clearance [1, 5] was 48.3 mL/min/kg. For the same compound, the AUC(0-t) ([1]; male, ICR, mouse, plasma, iv, 2 mg/kg, IV 2 mg/kg, ICR mice, Mean, read-out: AUC(0-t)) was 700 ng·h/mL, the Cmax ([1]; male, ICR, mouse, plasma, iv, 2 mg/kg, IV 2 mg/kg, ICR mice, Mean, read-out: Cmax) was 325 ng/mL and the MRT last [1, 5] was 1.33 h. For the same compound, the MRT inf [1, 5] was 1.45 h, the Tmax [1, 5] was 0.083 h and the Vd [1, 5] was 4.54 L/kg. The half-life ([1]; male, ICR, mouse, plasma, iv, 2 mg/kg, IV 2 mg/kg, ICR mice, Mean, read-out: t1/2 (converted)) was 1.07 h, the AUC(0-inf) [1, 6] was 737 ng·h/mL and the clearance [1, 6] was 45.2 mL/min/kg. The AUC(0-t) ([1]; male, ICR, mouse, plasma, iv, 2 mg/kg, IV 2 mg/kg, ICR mice, individual animal, read-out: AUC(0-t)) was 725 ng·h/mL, the Cmax ([1]; male, ICR, mouse, plasma, iv, 2 mg/kg, IV 2 mg/kg, ICR mice, individual animal, read-out: Cmax) was 330 ng/mL and the MRT last [1, 6] was 1.31 h. For the same compound, the MRT inf [1, 6] was 1.41 h, the Tmax [1, 6] was 0.08 h and the Vd [1, 6] was 3.92 L/kg. It also gave a half-life ([1]; male, ICR, mouse, plasma, iv, 2 mg/kg, IV 2 mg/kg, ICR mice, individual animal, read-out: t1/2 (converted)) of 1 h, an AUC(0-inf) [1, 7] of 1420 ng·h/mL and an AUC(0-t) ([1]; male, ICR, mouse, plasma, po, 5 mg/kg, PO 5 mg/kg, ICR mice, Mean, read-out: AUC(0-t)) of 1340 ng·h/mL. The Cmax ([1]; male, ICR, mouse, plasma, po, 5 mg/kg, PO 5 mg/kg, ICR mice, Mean, read-out: Cmax) was 398 ng/mL, the MRT last [1, 7] was 2.11 h and the MRT inf [1, 7] was 2.76 h. For the same compound, the Tmax [1, 7] was 1 h, the half-life ([1]; male, ICR, mouse, plasma, po, 5 mg/kg, PO 5 mg/kg, ICR mice, Mean, read-out: t1/2 (converted)) was 1.64 h and the MRT last [1, 8] was 1.94 h. For the same compound, the MRT inf [1, 8] was 1.99 h, the Tmax [1, 8] was 1 h and the half-life ([1]; male, ICR, mouse, plasma, po, 5 mg/kg, PO 5 mg/kg, ICR mice, individual animal, read-out: t1/2 (converted)) was 1.03 h. For the same compound, the AUC(0-t) ([1]; male, ICR, mouse, plasma, po, 5 mg/kg, oral intragastric administration 5 mg/kg, read-out: AUC0-t) was 1340 ng·h/mL, the half-life ([1]; male, ICR, mouse, plasma, po, 5 mg/kg, oral intragastric administration 5 mg/kg, read-out: half-life (converted)) was 1.64 h and the IC50 [2] was 39.6 nM.
